Test results published in US20050182025A1, “Amidinylphenyl compounds and their use as fungicides” (priority 2002, published 2005).

Experiments:
Type in all cases: in vivo
Puccinia recondita = test: Test B: preventive spray on wheat seedlings, wheat leaf rust, disease rating; conditions: wheat seedlings sprayed to run-off, inoculated the following day with Puccinia recondita, 24 h saturated atmosphere then 6 days at 20° C.; test concentration not given
How it was run: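 Preventive test: seedlings inoculated with Puccinia recondita one day after run-off spraying with test suspension (acetone/water, 250 ppm Trem 014; 200 ppm equals 500 g/ha). Rating after 24 h at 20° C in saturation plus 6 days in 20° C growth chamber; 0–100 scale versus controls.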

[1] = tested on: Erysiphe graminis f. sp. tritici; test: Test A: preventive spray on wheat seedlings, wheat powdery mildew, disease rating; conditions: wheat seedlings sprayed to run-off, inoculated the following day with Erysiphe graminis f. sp. tritici, rated after 7 days at 20° C.; test concentration not given
How it was run: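 Preventive test: Erysiphe graminis f. sp. tritici spore dust applied one day after run-off spraying of seedlings with acetone/water/surfactant suspension, 200 ppm equating to 500 g/ha. Plants held 7 days at 20 °C; ratings give % disease control versus controls, 100 full, 0 none.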

Septoria nodorum = test: Test C: preventive spray on wheat seedlings, Septoria glume blotch, disease rating; conditions: wheat seedlings sprayed to run-off, inoculated the following day with Septoria nodorum, 48 h saturated atmosphere then 9 days at 20° C.; test concentration not given
How it was run: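 Preventive test: one day after spraying (to run-off; 200 ppm ≈ 500 g/ha, in acetone/water with 250 ppm surfactant), seedlings received a S. nodorum spore suspension. After 48 h in saturated air and 9 days in a growth chamber, both at 20° C., % disease control versus controls was scored.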

SMILES	Test B disease control rating (100 = 100% disease control, 0 = no disease control relative to the controls) (Puccinia recondita) [%]	Test A disease control rating (100 = 100% disease control, 0 = no disease control relative to the controls) [1] [%]	Test C disease control rating (100 = 100% disease control, 0 = no disease control relative to the controls) (Septoria nodorum) [%]
CCN(CC)C(=S)Nc1cc(Cl)c(OCCC[Si](C)(C)C)cc1C [compound 170]	100	99	99
Cc1cc(OCCC[Si](C)(C)C)c(Cl)cc1N=CN(C)C [compound 172]	100	100	100
CC(=Nc1cc(Cl)c(OCCC[Si](C)(C)C)cc1C)N(C)C [compound 173]	90	32	99
Cc1cc(OCCCC(C)(C)C)c(Cl)cc1N=CN(C)C [compound 175]	100	97	100
Cc1cc(OCCCC(C)(C)C)c(Cl)cc1N=CN(C)C [compound 176]	99	43	100
CCN(CC)C(=S)Nc1cc(Cl)c(OCCCC(C)(C)C)cc1C [compound 177]	100	96	100
CCN(C)C(=S)Nc1cc(Cl)c(OCCCC(C)(C)C)cc1C [compound 178]	100	100	100
CCN(CC)C(=S)Nc1cc(Cl)c(OCCC[Si](C)(C)C)c(Cl)c1C [compound 179]	23	20	0
Cc1c(NC(=S)N(C)C)cc(Cl)c(OCCC[Si](C)(C)C)c1Cl [compound 180]	58	75	0
CCN(C)C(=S)Nc1cc(Cl)c(OCCC[Si](C)(C)C)c(Cl)c1C [compound 181]	100	100	67
CCN(C)C=Nc1cc(Cl)c(OCCC[Si](C)(C)C)c(Cl)c1C [compound 182]	79	98	67
CN(C)C(=S)Nc1cc(Cl)c(OCCC[Si](C)(C)C)cc1Cl [compound 183]	85	99	90
CCN(C)C(=S)Nc1cc(Cl)c(OCCC[Si](C)(C)C)cc1Cl [compound 184]	99	100	78
CCN(CC)C(=S)Nc1cc(Cl)c(OCCC[Si](C)(C)C)cc1Cl [compound 185]	98	99	63
CN(C)C(=S)Nc1cc(Cl)c(OCCCC(C)(C)C)cc1Cl [compound 186]	9	94	0
CCN(C)C(=S)Nc1cc(Cl)c(OCCCC(C)(C)C)cc1Cl [compound 187]	99	100	78
CCN(CC)C(=S)Nc1cc(Cl)c(OCCCC(C)(C)C)cc1Cl [compound 188]	79	100	90
Cc1cc(NC(=O)NCC(C)C)c(C)cc1N=CN(C)C [compound 189]	9	0	0
Cc1cc(NC(=O)NCC(C)(C)C)c(C)cc1N=CN(C)C [compound 190]	68	0	0
CCN(CC)C(=S)Nc1cc(C)c(OCCCC(C)(C)C)cc1C [compound 191]	99	63	91
Cc1cc(OCCCC(C)(C)C)c(C)cc1NC(=S)N(C)C [compound 192]	100	99	100
Cc1cc(NC(=O)N(C)CC(C)(C)C)c(C)cc1N=CN(C)C [compound 193]	23	0	0
CCN(C)C(=S)Nc1cc(C)c(OCCCC(C)(C)C)cc1C [compound 194]	100	99	100
CCN(C)C=Nc1cc(C)c(OCCC[Si](C)(C)C)cc1C [compound 196]	100	100	100
CCN(C)C=Nc1cc(Cl)c(OC(C)CCC(C)C)cc1C (stereo not drawn) [compound 198]	100	100	100
CCN(C)C=Nc1cc(C)c(OCCCC(C)(C)C)cc1C [compound 199]	100	100	100
CCN(C)C=Nc1cc(C)c(OCCCC(C)C)c(Cl)c1C [compound 200]	100	100	100
CCN(C)C=Nc1cc(C)c(OCCCC(C)(C)C)c(Cl)c1C [compound 201]	100	100	100
